Data: article PMC5341858, “Molecular regulation of apoptotic machinery and lipid metabolism by mTORC1/mTORC2 dual inhibitors in preclinical models of HER2+/PIK3CAmut breast cancer” (Oncotarget, 2016)

Tests used:
MDA-MB-453 cells = assay: Total cellular acetyl-CoA level; format: cell-based; conditions: 24 h
Procedure: Cellular glucose-to-lipid conversion was measured as described. Briefly, cells were pretreated with inhibitors for 2 h, incubated for 2 h in medium containing 2 μCi/mL D-[1-14C] glucose (PerkinElmer, NEC043X001MC). Total lipids were extracted twice with 300 μL hexane:isopropanol (3:2; vol:vol). Cell debris was carefully removed by centrifugation at 14,000 rpm for 5 min using a microcentrifuge. Radioactive lipids were dried, redissolved with 100 μL of chloroform and determined by liquid scintillation counting. A duplicate assay plate without radioactive glucose label was used to count the number of cells per treatment. Glucose to total lipid conversion rate is the radioactive counts from the extracted lipid normalized by the number of cells per hour of ^14C-glucose incubation. For acetyl-CoA assay, cells grown in 96-well plates were washed and lysed in 40 μL/well using lysis buffer. Cell lysates were transferred to V-bottom plates, cleared by centrifugation. 30 μL of the cleared cell lysates were subjected to acetyl-CoA measurement using an acetyl-CoA assay kit (Sigma, MAK-039) following manufacturer's assay manual. Duplicate assay plates were used to count the number of cells per treatment for normalization in determining cellular acetyl-CoA levels.

[1] = tested on: P-S6 and P-AKT in MDA-MB-453 tumors; assay: mTOR biomarkers in tumor tissue (immunoblot); format: in vivo, mice
Procedure: Animal studies were performed under protocols approved by Institutional Animal Care and Use Committee (IACUC) of Fudan University. Balbc female nude mice bearing MDA-MB-453, HCC1806 or 786-O tumors were staged at initial tumor volume of 150-200 mm^3 and randomized into treatment groups (n=/>8). […] Lapatinib and Sunitinib were formulated in 0.5% hydroxypropyl methyl cellulose (HPMC)-0.2% tween-80 as homogeneous suspension. All test agents were prepared twice weekly. Mice were dosed orally once daily (qd). Tumor growth inhibition rate (TGI) was calculated: TGI=[1-(Vt-Vi)/(Vc-Vi)]×100, where Vt: tumor volume of drug treated group, Vc: tumor volume of vehicle control group, Vi: initial tumor volume at staging. For biomarker studies, frozen tumors were made lysates and immunoblotted as previously described. For detecting apoptosis, tumors were excised, fixed in 4% formalin for 24 h and embedded in paraffin. […] The slides were blocked in Tris buffered saline with 5% BSA-0.3 M glycine and reacted with anti-CPT1A (Proteintech #15184-1-AP) or anti-P-ACL S455 (Abcam #59297) and detected with peroxidase-conjugated secondary antibody (Jackson # 111-035-003). […] Staining levels were analyzed on the basis of mean optical density quantified by software image pro plus 6.0.

Question: Which results are given for `CNC(=O)c1cccc(-c2ccc3c(N4C5CCC4COC5)nc(N4CCOC[C@@H]4C)nc3n2)c1` [MTI-31]?
Answer: reduction in acetyl-CoA (MDA-MB-453 cells): 67%; P-S6 and P-AKT levels in tumor tissue ([1]; 5 mg/kg oral qd): significantly reduced; P-S6 and P-AKT levels in tumor tissue ([1]; 10 mg/kg oral qd): nearly complete suppression
